What all share (format): functional
For test [1], the system named is Escherichia coli. In words: Bactericidal activity against Escherichia coli ATCC 25922 assessed as log reduction in bacterial colonies preincubated for 10 mins followed by bacterial plating on Luria-Bertani plates and measured after 18 to 24 hrs relative to control.
The subject of test [2] is Escherichia coli. In words: Bactericidal activity against Escherichia coli ATCC 25922 assessed as log reduction in bacterial colonies preincubated for 5 mins followed by bacterial plating on Luria-Bertani plates and measured after 18 to 24 hrs relative to control.
For test [3], the system named is Escherichia coli. The test is described as follows: Bactericidal activity against Escherichia coli ATCC 25922 assessed as reduction in bacterial colonies preincubated for 5 mins followed by bacterial plating on Luria-Bertani plates and measured after 18 to 24 hrs relative to control. Further details: concentration or dose not given beside the values.
The test system of test [4] is Staphylococcus aureus. The test is described as follows: Bactericidal activity against Staphylococcus aureus ATCC 25923 assessed as reduction in bacterial colonies preincubated for 5 mins followed by bacterial plating on Luria-Bertani plates and measured after 18 to 24 hrs relative to control. On the set-up: concentration or dose not given beside the values.
Test [5] relates to Staphylococcus aureus. In words: Bactericidal activity against Staphylococcus aureus ATCC 25923 assessed as log reduction in bacterial colonies preincubated for 10 mins followed by bacterial plating on Luria-Bertani plates and measured after 18 to 24 hrs relative to control.
The subject of test [6] is Staphylococcus aureus. In words: Bactericidal activity against Staphylococcus aureus ATCC 25923 assessed as log reduction in bacterial colonies preincubated for 5 mins followed by bacterial plating on Luria-Bertani plates and measured after 18 to 24 hrs relative to control.
Test [7] concerns Escherichia coli. In words: Bactericidal activity against Escherichia coli ATCC 25922 assessed as reduction in bacterial colonies preincubated for 10 mins followed by bacterial plating on Luria-Bertani plates and measured after 18 to 24 hrs relative to control. On the set-up: concentration or dose not given beside the values.
Test [8] deals with Staphylococcus aureus. In words: Bactericidal activity against Staphylococcus aureus ATCC 25923 assessed as reduction in bacterial colonies preincubated for 10 mins followed by bacterial plating on Luria-Bertani plates and measured after 18 to 24 hrs relative to control. On the set-up: concentration or dose not given beside the values.
The test system of test [9] is Staphylococcus aureus. In words: Bactericidal activity against Staphylococcus aureus ATCC 25923 assessed as reduction in bacterial colonies using initial inoculum of 4 x 10^7 CFU/ml preincubated for 5 mins followed by bacterial plating on Luria-Bertani plates and measured after 18 to 24 hrs relative to control. On the set-up: scale not given: the % may be the effect or the level left.

The source of these data is ChEMBL document CHEMBL4325915, “Synthesis of zwitterionic N-chlorohydantoins for antibacterial applications” (2018).

As to `CC1(C)C(=O)N(CCC[N+](C)(C)C)C(=O)N1Cl.[Cl-]`, the “log(activity)” value was 2.18 with Escherichia coli [1], 0.24 in the test on Escherichia coli [2], 0.6 with Staphylococcus aureus [5] and 0.05 with Staphylococcus aureus [6]. For the same molecule, the Activity in the test with Escherichia coli [3] was 42.2%; in the test with Staphylococcus aureus [4], 11.8%; with Escherichia coli [7], 99.3%; in the test on Staphylococcus aureus [8], 75%.

Consider `CC1(C)C(=O)N(CCC[N+](C)(C)CC(=O)[O-])C(=O)N1Cl`, for which the “log(activity)” value is on record as 6.63 in the test on Escherichia coli [1], 0.88 in the test with Escherichia coli [2], 6.83 in the test on Staphylococcus aureus [5] and 0.18 in the test with Staphylococcus aureus [6]. In addition, the Activity is on record as 86.7% in the test with Escherichia coli [3]; 34.3% in the test on Staphylococcus aureus [4]; 100% in the test on Escherichia coli [7]; 100% with Staphylococcus aureus [8]; 15% in the test on Staphylococcus aureus [9].

In the case of `CC1(C)NC(=O)N(CCO)C1=O`, the “log(activity)” value in the test with Escherichia coli [1], with Escherichia coli [2], in the test with Staphylococcus aureus [5] and in the test on Staphylococcus aureus [6] was 0 throughout. Besides, the Activity in the test on Escherichia coli [3], in the test with Staphylococcus aureus [4], in the test on Escherichia coli [7] and in the test with Staphylococcus aureus [8] was 0% each time.

Consider `CC1(C)NC(=O)N(CCC[N+](C)(C)CC(=O)[O-])C1=O`, for which the “log(activity)” value in the test on Escherichia coli [1], with Escherichia coli [2], in the test on Staphylococcus aureus [5] and with Staphylococcus aureus [6] was 0 each time. For the same molecule, the Activity in the test on Escherichia coli [3], with Staphylococcus aureus [4], in the test on Escherichia coli [7] and with Staphylococcus aureus [8] was 0% in each case.

Take `CC1(C)C(=O)N(CCO)C(=O)N1Cl`: the “log(activity)” value is 6.63 in the test with Escherichia coli [1], 6.63 in the test on Escherichia coli [2], 6.83 in the test with Staphylococcus aureus [5] and 6.83 in the test with Staphylococcus aureus [6]. The Activity in the test on Escherichia coli [3] was 100%; with Staphylococcus aureus [4], 100%; in the test with Escherichia coli [7], 100%; in the test on Staphylococcus aureus [8] it was 100%; in the test with Staphylococcus aureus [9] it was 99.8%.

As to `CC1(C)C(=O)N(CCC[N+](C)(C)CCCS(=O)(=O)[O-])C(=O)N1Cl`, the “log(activity)” value in the test on Escherichia coli [1] was found to be 1; in the test on Escherichia coli [2] it was 0.13; in the test with Staphylococcus aureus [5], 0.29; in the test with Staphylococcus aureus [6], 0.1. Also, the Activity with Escherichia coli [3] is on record as 25.1%; with Staphylococcus aureus [4], 19.8%; with Escherichia coli [7], 89.9%; in the test with Staphylococcus aureus [8], 49.1%.

`CC1(C)NC(=O)N(CCC[N+](C)(C)CCCS(=O)(=O)[O-])C1=O`: the “log(activity)” value with Escherichia coli [1], in the test on Escherichia coli [2], in the test on Staphylococcus aureus [5] and in the test on Staphylococcus aureus [6] was 0 throughout. The Activity with Escherichia coli [3], in the test on Staphylococcus aureus [4], with Escherichia coli [7] and with Staphylococcus aureus [8] was 0% in each case.

Take `CC1(C)NC(=O)N(CCC[N+](C)(C)C)C1=O.[Cl-]`: the “log(activity)” value in the test on Escherichia coli [1], in the test with Escherichia coli [2], in the test with Staphylococcus aureus [5] and in the test with Staphylococcus aureus [6] was 0 in each case. Moreover, the Activity with Escherichia coli [3], in the test with Staphylococcus aureus [4], in the test with Escherichia coli [7] and in the test with Staphylococcus aureus [8] was 0% in each case.
